System: ACh-induced bronchoconstriction
Assay: Duration of bronchoprotection in guinea pig model of acetylcholine-induced bronchoconstriction
Type: in vivo
Conditions: inhalation, 1.5 hours post-dose
Procedure: Determination of Duration of Bronchoprotection in Guinea Pig Model of Acetylcholine-Induced Bronchoconstriction
Groups of six male guinea pigs (Duncan-Hartley (HsdPoc:DH) Harlan, Madison, Wis.) weighing between 250 and 350 g were individually identified by cage cards. Throughout the study animals were allowed access to food and water ad libitum.
Test compounds were administered via inhalation over 10 minutes in a whole-body exposure dosing chamber (R&S Molds, San Carlos, Calif.). The dosing chambers were arranged so that an aerosol was simultaneously delivered to 6 individual chambers from a central manifold. Guinea pigs were exposed to an aerosol of a test compound or vehicle (WFI). […] This was measured gravimetrically by comparing pre-and post-nebulization weights of the filled nebulizer.
The bronchoprotective effects of test compounds administered via inhalation were evaluated using whole body plethysmography at 1.5, 24, 48 and 72 hours post-dose.
Forty-five minutes prior to the start of the pulmonary evaluation, each guinea pig was anesthetized with an intramuscular injection of ketamine (43.75 mg/kg), xylazine (3.50 mg/kg) and acepromazine (1.05 mg/kg). […] The depth of anesthesia was monitored and adjusted if the animal responded to pinching of its paw or if the respiration rate was greater than 100 breaths/minute. […]

## CNCC(=O)NCCCCCN1CC[C@@H](C(C(N)=O)(c2ccccc2)c2ccccc2)C1 [Example 1]
  PD2(50) for ACh-induced bronchoconstriction: less than 200 μg/mL

From patent US7208515B2, “Diphenylmethyl compounds useful as muscarinic receptor antagonists” (Theravance, Inc., priority 2004, dated 2007)
